Literature values as cited in patent US7135615B2, “Chromosome doubling method” (The Curators of the University of Missouri, priority 2001, dated 2006).

Test system: parthenogenetically induced haploid maize (Zea mays L.) seedlings
Conditions: cited from earlier work

COc1cc2c(c(OC)c1OC)-c1ccc(OC)c(=O)cc1[C@@H](NC(C)=O)CC2 [colchicine]
haploid recovery rates (colchicine treatments of haploid maize seedlings, reported): 26–41%
recovery rates could drop as low as (colchicine treatments, affected by growing conditions): 0.8–3.1%
estimated selfing rate (previously used colchicine treatments): 5–15%
